Source: ChEMBL document CHEMBL2203257 (Bioorg Med Chem Lett, 2012)

Experiments:
[1] = target: Serine/threonine-protein kinase SIK3 (Homo sapiens, UniProt Q9Y2K2); assay: Inhibition of KIAA0999
[2] = target: Activin receptor type-2A (Homo sapiens, UniProt P27037); assay: Inhibition of ACVR2A
[3] = target: Fibroblast growth factor receptor 1 (Homo sapiens, UniProt P11362); assay: Inhibition of FGFR1
[4] = system: Mus musculus; assay: Antiarthritic activity against collagen-induced arthritis mouse model assessed as mean clinical arthritis score with AUC calculation in at 10 mg/kg, po BID for 14 days; assay type: functional
[5] = target: Macrophage-stimulating protein receptor (Homo sapiens, UniProt Q04912); assay: Inhibition of MST1R
[6] = target: Dual specificity testis-specific protein kinase 2 (Homo sapiens, UniProt Q96S53); assay: Inhibition of TESK2
[7] = system: Mus musculus; assay: Antiinflammatory activity in mouse air pouch model assessed as effect on IL-8-induced migration of granulocytes into air pouch at 3 mg/kg, po; assay type: functional
[8] = target: Mitogen-activated protein kinase kinase kinase 3 (Homo sapiens, UniProt Q99759); assay: Inhibition of MAP3K3
[9] = target: Phosphatidylinositol 3-kinase catalytic subunit type 3 (Homo sapiens, UniProt Q8NEB9); assay: Inhibition of PIK3C3
[10] = target: Proto-oncogene tyrosine-protein kinase receptor Ret (Homo sapiens, UniProt P07949); assay: Inhibition of RET
[11] = target: MAP/microtubule affinity-regulating kinase 4 (Homo sapiens, UniProt Q96L34); assay: Inhibition of MARK4
[12] = target: Ribosomal protein S6 kinase alpha-4 (Homo sapiens, UniProt O75676); assay: Inhibition of RPS6KA4
[13] = target: Casein kinase II subunit alpha' (Homo sapiens, UniProt P19784); assay: Inhibition of CSNK2A2
[14] = target: Serine/threonine-protein kinase ATR (Homo sapiens, UniProt Q13535); assay: Inhibition of ATR
[15] = target: Ribosomal protein S6 kinase alpha-1 (Homo sapiens, UniProt Q15418); assay: Inhibition of RPS6KA1
[16] = target: Calcium/calmodulin-dependent protein kinase kinase 1 (Homo sapiens, UniProt Q8N5S9); assay: Inhibition of CAMKK1
[17] = target: Serine/threonine-protein kinase PAK 4 (Homo sapiens, UniProt O96013); assay: Inhibition of PAK4
[18] = target: Cyclin-dependent kinase 1 (Homo sapiens, UniProt P06493); assay: Inhibition of CDC2
[19] = target: Tyrosine-protein kinase ABL2 (Homo sapiens, UniProt P42684); assay: Inhibition of ABL2
[20] = target: Cyclin-dependent kinase 6 (Homo sapiens, UniProt Q00534); assay: Inhibition of CDK6
[21] = target: Interleukin-1 receptor-associated kinase 1 (Homo sapiens, UniProt P51617); assay: Inhibition of IRAK1
[22] = target: Tyrosine-protein kinase FRK (Homo sapiens, UniProt P42685); assay: Inhibition of FRK
[23] = target: Serine/threonine-protein kinase SIK2 (Homo sapiens, UniProt Q9H0K1); assay: Inhibition of SIK2
[24] = target: 5'-AMP-activated protein kinase catalytic subunit alpha-1 (Homo sapiens, UniProt Q13131); assay: Inhibition of PRKAA1
[25] = target: BMP-2-inducible protein kinase (Homo sapiens, UniProt Q9NSY1); assay: Inhibition of BMP2K
[26] = target: Ephrin type-B receptor 2 (Homo sapiens, UniProt P29323); assay: Inhibition of EPHB2
[27] = Half life in cynomolgus monkey; assay type: ADME, organism-based, Macaca fascicularis; details: in vivo
[28] = target: Membrane-associated tyrosine- and threonine-specific cdc2-inhibitory kinase (Homo sapiens, UniProt Q99640); assay: Inhibition of PKMYT1
[29] = target: Dual specificity mitogen-activated protein kinase kinase 1 (Homo sapiens, UniProt Q02750); assay: Inhibition of MAP2K1
[30] = target: Epithelial discoidin domain-containing receptor 1 (Homo sapiens, UniProt Q08345); assay: Inhibition of DDR1
[31] = target: Serine/threonine-protein kinase 17B (Homo sapiens, UniProt O94768); assay: Inhibition of STK17B
[32] = Oral bioavailability in cynomolgus monkey; assay type: ADME, organism-based, Macaca fascicularis; details: in vivo
[33] = target: Phosphatidylinositol 5-phosphate 4-kinase type-2 gamma (Homo sapiens, UniProt Q8TBX8); assay: Inhibition of PIP4K2C
[34] = Cmax in rat […] at 5 mg/kg, po; 1 mg/kg, iv; assay type: ADME, organism-based
[35] = target: Serine/threonine-protein kinase TBK1 (Homo sapiens, UniProt Q9UHD2); assay: Inhibition of TBK1
[36] = target: Tyrosine-protein kinase CSK (Homo sapiens, UniProt P41240); assay: Inhibition of CSK
[37] = target: Serine/threonine-protein kinase 4 (Homo sapiens, UniProt Q13043); assay: Inhibition of STK4
[38] = target: Epidermal growth factor receptor (Homo sapiens, UniProt P00533); assay: Inhibition of EGFR
[39] = target: Ribosomal protein S6 kinase alpha-5 (Homo sapiens, UniProt O75582); assay: Inhibition of RPS6KA5
[40] = target: Tyrosine-protein kinase Fgr (Homo sapiens, UniProt P09769); assay: Inhibition of FGR
[41] = target: Tyrosine-protein kinase SYK (Homo sapiens, UniProt P43405); assay: Inhibition of SYK
[42] = target: LIM domain kinase 1 (Homo sapiens, UniProt P53667); assay: Inhibition of LIMK1
[43] = target: Atypical kinase COQ8A, mitochondrial (Homo sapiens, UniProt Q8NI60); assay: Inhibition of CABC1
[44] = Half life in rat […] at 5 mg/kg, po; 1 mg/kg, iv; assay type: ADME, organism-based
[45] = target: Serine/threonine-protein kinase TAO3 (Homo sapiens, UniProt Q9H2K8); assay: Inhibition of TAOK3
[46] = target: Mitogen-activated protein kinase kinase kinase 2 (Homo sapiens, UniProt Q9Y2U5); assay: Inhibition of MAP3K2
[47] = target: Serine/threonine-protein kinase D2 (Homo sapiens, UniProt Q9BZL6); assay: Inhibition of PRKD2
[48] = target: Mitogen-activated protein kinase kinase kinase 5 (Homo sapiens, UniProt Q99683); assay: Inhibition of MAP3K5
[49] = target: Serine/threonine-protein kinase N1 (Homo sapiens, UniProt Q16512); assay: Inhibition of PKN1
[50] = target: Mitogen-activated protein kinase kinase kinase kinase 2 (Homo sapiens, UniProt Q12851); assay: Inhibition of MAP4K2
[51] = target: Serine/threonine-protein kinase 16 (Homo sapiens, UniProt O75716); assay: Inhibition of STK16
[52] = target: Phosphoinositide 3-kinase regulatory subunit 4 (Homo sapiens, UniProt Q99570); assay: Inhibition of PIK3R4
[53] = target: Bromodomain-containing protein 2 (Homo sapiens, UniProt P25440); assay: Inhibition of BRD2
[54] = target: Cytochrome P450 2D6 (Homo sapiens, UniProt P10635); assay: Inhibition of CYP2D6 at >20 uM; assay type: ADME
[55] = target: Interleukin-1 receptor-associated kinase 3 (Homo sapiens, UniProt Q9Y616); assay: Inhibition of IRAK3

Chain of Dual specificity testis-specific protein kinase 2 (Q96S53 whole entry): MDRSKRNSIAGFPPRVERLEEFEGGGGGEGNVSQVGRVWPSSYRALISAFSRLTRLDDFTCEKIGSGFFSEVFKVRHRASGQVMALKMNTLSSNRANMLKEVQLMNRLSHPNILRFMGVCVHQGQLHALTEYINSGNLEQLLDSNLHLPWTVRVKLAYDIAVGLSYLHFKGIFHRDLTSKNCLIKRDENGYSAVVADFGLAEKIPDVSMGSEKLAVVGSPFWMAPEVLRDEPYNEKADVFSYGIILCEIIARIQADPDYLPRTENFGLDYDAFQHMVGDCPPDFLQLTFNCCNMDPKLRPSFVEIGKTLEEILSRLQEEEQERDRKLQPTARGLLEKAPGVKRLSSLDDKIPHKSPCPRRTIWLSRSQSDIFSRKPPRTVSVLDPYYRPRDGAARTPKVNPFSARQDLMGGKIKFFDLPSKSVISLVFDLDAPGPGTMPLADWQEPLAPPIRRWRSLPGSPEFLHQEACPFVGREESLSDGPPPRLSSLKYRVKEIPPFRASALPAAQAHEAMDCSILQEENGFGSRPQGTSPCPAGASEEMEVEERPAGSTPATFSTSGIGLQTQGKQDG
Chain of Mitogen-activated protein kinase kinase kinase kinase 2 (Q12851 whole entry): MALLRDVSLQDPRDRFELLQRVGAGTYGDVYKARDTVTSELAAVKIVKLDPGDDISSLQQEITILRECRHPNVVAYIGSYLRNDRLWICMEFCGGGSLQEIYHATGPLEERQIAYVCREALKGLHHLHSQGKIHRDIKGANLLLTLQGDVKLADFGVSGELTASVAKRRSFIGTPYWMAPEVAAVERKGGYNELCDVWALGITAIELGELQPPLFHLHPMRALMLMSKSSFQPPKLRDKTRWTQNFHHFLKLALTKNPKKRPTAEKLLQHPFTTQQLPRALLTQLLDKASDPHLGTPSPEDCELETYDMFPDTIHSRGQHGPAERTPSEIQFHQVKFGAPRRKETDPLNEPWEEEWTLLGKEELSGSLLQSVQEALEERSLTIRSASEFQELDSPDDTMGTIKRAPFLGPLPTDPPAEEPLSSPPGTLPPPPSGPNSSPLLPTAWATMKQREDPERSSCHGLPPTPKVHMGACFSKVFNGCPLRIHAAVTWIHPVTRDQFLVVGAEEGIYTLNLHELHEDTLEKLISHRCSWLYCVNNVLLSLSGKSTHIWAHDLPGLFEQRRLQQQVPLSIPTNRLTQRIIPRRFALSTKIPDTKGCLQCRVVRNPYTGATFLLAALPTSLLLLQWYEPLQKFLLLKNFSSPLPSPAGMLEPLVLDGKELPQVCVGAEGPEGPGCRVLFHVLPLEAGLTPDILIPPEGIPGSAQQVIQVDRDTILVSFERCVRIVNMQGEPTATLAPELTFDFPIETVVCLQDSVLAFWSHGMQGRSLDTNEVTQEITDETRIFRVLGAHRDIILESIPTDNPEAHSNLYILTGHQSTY
Chain of Proto-oncogene tyrosine-protein kinase receptor Ret (P07949 whole entry): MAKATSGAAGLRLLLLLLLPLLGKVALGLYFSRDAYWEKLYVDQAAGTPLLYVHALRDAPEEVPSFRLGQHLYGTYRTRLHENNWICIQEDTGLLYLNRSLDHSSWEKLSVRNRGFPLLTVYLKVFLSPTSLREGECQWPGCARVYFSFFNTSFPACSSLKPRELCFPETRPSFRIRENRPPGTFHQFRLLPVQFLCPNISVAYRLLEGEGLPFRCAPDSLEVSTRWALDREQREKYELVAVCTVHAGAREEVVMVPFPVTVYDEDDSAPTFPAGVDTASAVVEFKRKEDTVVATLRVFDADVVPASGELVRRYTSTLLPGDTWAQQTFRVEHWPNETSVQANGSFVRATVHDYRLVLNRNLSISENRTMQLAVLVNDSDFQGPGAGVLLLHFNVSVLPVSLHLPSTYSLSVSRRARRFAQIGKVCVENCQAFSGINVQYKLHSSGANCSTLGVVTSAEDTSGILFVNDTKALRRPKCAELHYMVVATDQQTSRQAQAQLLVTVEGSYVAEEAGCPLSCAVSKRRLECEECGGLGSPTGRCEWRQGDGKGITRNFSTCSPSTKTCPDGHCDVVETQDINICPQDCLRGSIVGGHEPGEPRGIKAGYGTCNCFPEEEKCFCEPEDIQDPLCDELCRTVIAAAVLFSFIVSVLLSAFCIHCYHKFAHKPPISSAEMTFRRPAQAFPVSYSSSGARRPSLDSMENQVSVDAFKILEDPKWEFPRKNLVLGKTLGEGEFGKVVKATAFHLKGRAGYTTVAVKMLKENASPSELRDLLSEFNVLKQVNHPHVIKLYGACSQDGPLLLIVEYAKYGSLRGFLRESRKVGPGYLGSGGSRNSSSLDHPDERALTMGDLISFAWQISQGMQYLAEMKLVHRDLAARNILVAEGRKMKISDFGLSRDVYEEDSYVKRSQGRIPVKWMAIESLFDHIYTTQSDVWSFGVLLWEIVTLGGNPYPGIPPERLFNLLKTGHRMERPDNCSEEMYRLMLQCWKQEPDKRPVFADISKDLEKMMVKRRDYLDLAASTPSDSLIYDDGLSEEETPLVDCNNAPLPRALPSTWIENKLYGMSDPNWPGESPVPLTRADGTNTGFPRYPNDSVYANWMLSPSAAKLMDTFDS
Chain of Serine/threonine-protein kinase ATR (Q13535 whole entry): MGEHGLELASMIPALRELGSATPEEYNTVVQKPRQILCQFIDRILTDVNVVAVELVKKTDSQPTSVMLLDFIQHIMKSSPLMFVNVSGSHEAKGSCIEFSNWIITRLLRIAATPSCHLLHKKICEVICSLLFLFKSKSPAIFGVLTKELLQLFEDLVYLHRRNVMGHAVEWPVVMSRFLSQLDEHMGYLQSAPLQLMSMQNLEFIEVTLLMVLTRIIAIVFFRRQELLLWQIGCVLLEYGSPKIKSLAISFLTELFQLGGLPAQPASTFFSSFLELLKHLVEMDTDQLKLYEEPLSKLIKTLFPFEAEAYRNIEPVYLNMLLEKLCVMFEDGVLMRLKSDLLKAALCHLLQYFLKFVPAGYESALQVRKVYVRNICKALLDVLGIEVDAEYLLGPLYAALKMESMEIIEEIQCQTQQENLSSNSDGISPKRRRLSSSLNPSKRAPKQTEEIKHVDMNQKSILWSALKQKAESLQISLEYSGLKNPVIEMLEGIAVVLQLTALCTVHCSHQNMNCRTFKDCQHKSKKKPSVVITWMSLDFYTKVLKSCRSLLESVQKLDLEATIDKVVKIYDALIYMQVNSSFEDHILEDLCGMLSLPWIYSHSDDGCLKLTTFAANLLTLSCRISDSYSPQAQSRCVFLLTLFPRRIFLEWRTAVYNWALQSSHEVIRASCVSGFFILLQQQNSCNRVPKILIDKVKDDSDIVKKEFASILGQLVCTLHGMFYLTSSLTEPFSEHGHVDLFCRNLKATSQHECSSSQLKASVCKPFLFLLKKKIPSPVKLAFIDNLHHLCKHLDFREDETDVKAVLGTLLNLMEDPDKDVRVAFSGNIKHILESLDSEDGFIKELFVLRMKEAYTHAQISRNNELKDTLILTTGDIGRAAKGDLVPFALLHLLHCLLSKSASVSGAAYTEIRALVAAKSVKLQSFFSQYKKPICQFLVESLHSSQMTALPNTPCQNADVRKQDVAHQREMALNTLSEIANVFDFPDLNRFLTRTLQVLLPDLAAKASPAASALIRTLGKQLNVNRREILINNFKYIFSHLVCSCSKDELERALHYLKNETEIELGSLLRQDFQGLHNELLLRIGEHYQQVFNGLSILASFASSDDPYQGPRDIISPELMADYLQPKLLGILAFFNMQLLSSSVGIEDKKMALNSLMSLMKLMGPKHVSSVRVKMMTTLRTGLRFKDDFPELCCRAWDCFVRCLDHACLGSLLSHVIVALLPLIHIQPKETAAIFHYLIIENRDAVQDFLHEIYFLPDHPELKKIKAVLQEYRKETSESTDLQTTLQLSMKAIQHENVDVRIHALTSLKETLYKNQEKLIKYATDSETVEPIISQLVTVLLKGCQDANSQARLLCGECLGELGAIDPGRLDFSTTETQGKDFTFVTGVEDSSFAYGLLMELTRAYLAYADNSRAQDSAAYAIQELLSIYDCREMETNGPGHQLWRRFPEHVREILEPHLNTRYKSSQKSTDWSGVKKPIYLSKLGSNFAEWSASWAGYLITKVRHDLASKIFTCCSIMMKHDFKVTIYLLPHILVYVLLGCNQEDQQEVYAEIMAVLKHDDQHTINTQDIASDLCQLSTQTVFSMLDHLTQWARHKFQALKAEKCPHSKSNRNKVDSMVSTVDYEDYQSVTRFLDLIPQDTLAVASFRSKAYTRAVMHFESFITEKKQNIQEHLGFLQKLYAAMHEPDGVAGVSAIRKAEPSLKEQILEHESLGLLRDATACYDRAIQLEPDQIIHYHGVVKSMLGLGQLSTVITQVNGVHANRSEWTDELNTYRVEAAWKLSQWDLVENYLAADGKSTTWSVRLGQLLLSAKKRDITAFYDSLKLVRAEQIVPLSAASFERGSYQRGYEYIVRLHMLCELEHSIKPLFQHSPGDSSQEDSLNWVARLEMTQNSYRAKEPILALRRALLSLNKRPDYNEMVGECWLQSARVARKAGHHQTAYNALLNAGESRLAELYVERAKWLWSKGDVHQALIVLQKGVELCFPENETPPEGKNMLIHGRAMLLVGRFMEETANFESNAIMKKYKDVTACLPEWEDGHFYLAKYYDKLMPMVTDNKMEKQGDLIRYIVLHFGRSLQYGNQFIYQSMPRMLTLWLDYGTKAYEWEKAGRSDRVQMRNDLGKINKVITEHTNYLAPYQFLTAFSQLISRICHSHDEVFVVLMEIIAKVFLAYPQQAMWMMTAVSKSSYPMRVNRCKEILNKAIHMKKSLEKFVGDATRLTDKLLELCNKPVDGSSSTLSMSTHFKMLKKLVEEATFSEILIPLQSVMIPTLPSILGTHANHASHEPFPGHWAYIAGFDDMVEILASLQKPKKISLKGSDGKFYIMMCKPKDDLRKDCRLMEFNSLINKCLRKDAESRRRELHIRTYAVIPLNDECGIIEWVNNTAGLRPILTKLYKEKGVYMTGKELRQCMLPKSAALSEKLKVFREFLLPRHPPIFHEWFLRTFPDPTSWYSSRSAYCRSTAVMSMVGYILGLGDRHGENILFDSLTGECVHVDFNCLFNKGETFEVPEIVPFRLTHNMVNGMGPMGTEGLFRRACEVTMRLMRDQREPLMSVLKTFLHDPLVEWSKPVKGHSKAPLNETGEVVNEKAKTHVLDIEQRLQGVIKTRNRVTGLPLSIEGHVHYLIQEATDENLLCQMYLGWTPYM

- IC50 [1]: > 10 µM
- IC50 [2]: > 10 µM
- IC50 [3]: > 10 µM
- IC50 [5]: > 10 µM
- IC50 [6]: > 10 µM
- IC50 [8]: > 10 µM
- IC50 [9]: > 5.89 µM
- IC50 [10]: > 10 µM
- IC50 [11]: > 10 µM
- IC50 [12]: > 10 µM
- IC50 [13]: > 10 µM
- IC50 [14]: > 5.89 µM
- IC50 [15]: > 10 µM
- IC50 [16]: > 10 µM
- IC50 [17]: 9.33 µM
- IC50 [18]: > 10 µM
- IC50 [19]: > 10 µM
- IC50 [20]: > 10 µM
- IC50 [21]: > 10 µM
- IC50 [22]: > 10 µM
- IC50 [23]: > 10 µM
- IC50 [24]: > 10 µM
- IC50 [25]: > 10 µM
- IC50 [26]: > 10 µM
- half-life [27]: 6.1 h
- IC50 [28]: > 10 µM
- IC50 [29]: > 10 µM
- IC50 [30]: > 10 µM
- IC50 [31]: > 10 µM
- bioavailability [32]: 88%
- IC50 [33]: 1.07 µM
- Cmax [34]: 5.9 µM
- IC50 [35]: > 10 µM
- IC50 [36]: > 10 µM
- IC50 [37]: > 10 µM
- IC50 [38]: > 10 µM
- IC50 [39]: > 10 µM
- IC50 [40]: > 10 µM
- IC50 [41]: > 10 µM
- IC50 [42]: > 10 µM
- IC50 [43]: > 10 µM
- half-life [44]: 1.2 h
- IC50 [45]: > 10 µM
- IC50 [46]: > 10 µM
- IC50 [47]: > 10 µM
- IC50 [48]: > 10 µM
- IC50 [49]: > 10 µM
- IC50 [50]: > 10 µM
- IC50 [51]: > 10 µM
- IC50 [52]: > 10 µM
- IC50 [53]: > 10 µM
- inhibition (INH) [54]: Active
- IC50 [55]: > 10 µM
Structure (SMILES): CC(C)(C)NS(=O)(=O)c1cncc(-c2ccn3nc(N)nc3c2)c1
- Activity [4]: 42%
- Activity [7]: 74%
